The record followed here is PMC6411751, “Use of machine learning to identify novel, behaviorally active antagonists of the insect odorant receptor co-receptor (Orco) subunit” (Scientific Reports, 2019).

As usually defined, the IC50 is the midpoint of a concentration-inhibition curve.

One experiment relates to Cqui\Or21 + Cqui\Orco. The experiment can be described thus: Inhibition of heteromeric OR in oocytes (3-methylindole or OLC12 activation). In kind it is cell-based, Culex quinquefasciatus. Conditions: 100 µM antagonist; for inhibition of odorant activation: 30 nM 3-methylindole; for antagonism of OLC12 (Orco agonist) activation of heteromeric OR: 3 µM OLC12. As for the experimental part: (§1) An automated parallel electrophysiology system (OpusExpress 6000 A, Molecular Devices) was used to record Orco agonist (OLC12) or odorant induced currents under two-electrode voltage clamp. Oocytes were perfused with ND96 (in mM: 96 NaCl, 2 KCl, 1 CaCl2, 1 MgCl2, 5 HEPES, pH 7.4). DMSO was used to prepare 1 M or 100 mM stock solutions of test compounds, which were then diluted in ND96 on the day of the experiment. Compounds were applied at a flow rate of 1.0 mL/min, with extensive washing in ND96 at 4.6 mL/min between applications. Micropipettes with resistances of 0.2–2.0 MΩ were filled with 3 M KCl. The holding potential was −70 mV. Current responses were filtered (4-pole, Bessel, low pass) at 20 Hz (−3 db) and sampled at 100 Hz. OpusXpress 1.1 software (Molecular Devices) was used to capture and store current responses.
(§2) To measure the ability of Orco antagonists to inhibit odorant activation, oocytes expressing heteromeric ORs (Orco + ORX) were exposed to a 30 sec application of odorant followed by a 20 min wash. Oocytes were then exposed to a 90 sec application of Orco antagonist, immediately followed by a 30 sec co-application of Orco antagonist and odorant. The current response to odorant in the presence of Orco antagonist was compared to the preceding response to odorant alone and represented as a percentage. This value was then normalized to the value obtained when the assay was run in the absence of antagonist (sham).
(§3) Figure S3. Effects of Orco antagonists on heteromeric ORs. […]
heteromeric complexes of odorant specificity subunits and Orco. The Orco antagonists tested were 3-isopropyl-6-methyl-catechol (3 I6 MC), a potent compound from the input training set, and two compounds id e ntified in Fig u re 4 an d Ta b le 1 : 2-tert-butyl-6-methylphenol (B MP ) and linalyl formate (LF) . These compounds were tested for antagonist activity against odorant activation of three ORs from Anopheles gambiae (Agam\Or28 + Agam\Orco, Agam\Or39 + A ga m\Orco, Agam\Or65 + A ga m\Orco), o ne O R fro m Culex quinquefasciatus, the southern house mosquito (Cq u i\Or21 + Cqui\Orco) an d on e O R f ro m Drosophila melanogaster (Dme l\Or35a + Dmel\Orco). Each OR was activated by its cognate odorant agonist applied at an approximate EC50 concentration. […]
SEM (n = 4). […] Statistical significance of the data in each panel was assessed by one-way analysis of variance followed by Dunnett’s multiple comparison test using the pre-normalized values for each antagonist compared to the values obtained in the sham recordings (*, p < 0 .0 5; **, p < 0. 01; ***, p < 0 . 00 1 ).

The target in a further experiment is T1, Agam\Or28 + Agam\Orco (Anopheles gambiae, UniProt Q7QCC7).
T1 construct: expressed in transfected cells; host or cells: Xenopus laevis oocytes
T1 sequence (Q7QCC7 1-478): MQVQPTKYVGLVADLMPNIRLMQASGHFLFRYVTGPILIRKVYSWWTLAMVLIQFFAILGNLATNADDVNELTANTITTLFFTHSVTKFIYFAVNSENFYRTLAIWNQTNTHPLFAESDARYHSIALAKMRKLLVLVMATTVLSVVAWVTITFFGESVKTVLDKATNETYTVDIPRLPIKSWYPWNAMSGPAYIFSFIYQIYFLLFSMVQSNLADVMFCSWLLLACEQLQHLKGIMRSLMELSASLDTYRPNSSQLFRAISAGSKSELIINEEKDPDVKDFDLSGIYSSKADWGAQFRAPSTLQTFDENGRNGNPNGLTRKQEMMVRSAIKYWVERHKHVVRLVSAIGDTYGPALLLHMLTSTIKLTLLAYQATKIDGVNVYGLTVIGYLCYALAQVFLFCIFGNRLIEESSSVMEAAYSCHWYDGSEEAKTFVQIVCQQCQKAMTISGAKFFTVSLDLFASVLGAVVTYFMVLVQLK
Description: Inhibition of heteromeric OR in oocytes (acetophenone activation). Conditions: for inhibition of odorant activation: 100 µM antagonist, 40 µM acetophenone. Format: cell-based. As for the experimental part: as §1

The target of the next experiment is T2, Agam\Or39 + Agam\Orco (Anopheles gambiae, UniProt Q7QCC7).
T2 construct: expressed in transfected cells; host or cells: Xenopus laevis oocytes
T2 sequence (Q7QCC7 1-478): T1 sequence (Q7QCC7 1-478)
Description: Inhibition of heteromeric OR in oocytes (6-methyl-5-hepten-2-one activation). Conditions: 100 µM antagonist; 10 µM 6-methyl-5-hepten-2-one. In kind it is cell-based. As for the experimental part: as §1, §2, §3
(§4) heteromeric complexes of odorant specificity subunits and Orco. The Orco antagonists tested were 3-isopropyl-6-methyl-catechol (3 I6 MC), a potent compound from the input training set, and two compounds id e ntified in Fig u re 4 an d Ta b le 1 : 2-tert-butyl-6-methylphenol (B MP ) and linalyl formate (LF) . […]
Statistical significance of the data in each panel was assessed by one-way analysis of variance followed by Dunnett’s […]

The next experiment concerns the target T3, Agam\Or65 + Agam\Orco (Anopheles gambiae, UniProt Q7QCC7).
T3 construct: expressed in transfected cells; host or cells: Xenopus laevis oocytes
T3 sequence (Q7QCC7 1-478): T1 sequence (Q7QCC7 1-478)
The experiment can be described thus: Inhibition of heteromeric OR in oocytes (eugenol activation). In kind it is cell-based. The conditions noted are these: 100 µM antagonist; 100 nM eugenol. The procedure:
as §1, §2, §3, §4
SEM (n = 4). […] Statistical significance of the data in each panel was assessed by one-way analysis of variance followed by Dunnett’s […]

Structures are written as SMILES. Where a name gives a salt, the structure may show the parent alone.

Take `C=CC(C)(CCC=C(C)C)OC=O` (centres unmarked) [LF, linalyl formate]: the “inhibition of odorant activation” value in the experiment with Cqui\Or21 + Cqui\Orco, on Agam\Or28 + Agam\Orco, on Agam\Or39 + Agam\Orco and at Agam\Or65 + Agam\Orco was “able to inhibit odorant activation” in each case. The “antagonism of OLC12 (Orco agonist) activation of heteromeric OR” value (shortened to “antagonism of OLC12”) in the experiment on Cqui\Or21 + Cqui\Orco was “able to antagonize OLC12”.
As for `Cc1cccc(C(C)(C)C)c1O` [BMP, 2-tert-butyl-6-methylphenol], the “inhibition of odorant activation” value in the experiment with Cqui\Or21 + Cqui\Orco, on Agam\Or28 + Agam\Orco, on Agam\Or39 + Agam\Orco and on Agam\Or65 + Agam\Orco was “able to inhibit odorant activation” in each case. For the same molecule, the “antagonism of OLC12” value in the experiment with Cqui\Or21 + Cqui\Orco was “able to antagonize OLC12”. The IC50 at Agam\Or28 + Agam\Orco (100 µM acetophenone, n = 4-8, read-out: IC50 for inhibition of Agam\Or28 + Agam\Orco activation by 100 µM ACE) came out at 53 ± 9 µM. Further, the “mechanism of inhibition of odorant responses” value on Agam\Or28 + Agam\Orco (10 vs 100 µM acetophenone fails to shift inhibition curve) is recorded as “non-competitive”.
As to `Cc1ccc(C(C)C)c(O)c1O` [3I6MC, 3-isopropyl-6-methyl catechol], the “inhibition of odorant activation” value in the experiment with Cqui\Or21 + Cqui\Orco, at Agam\Or28 + Agam\Orco, on Agam\Or39 + Agam\Orco and at Agam\Or65 + Agam\Orco was “could inhibit odorant activation” throughout. Besides, the “antagonism of OLC12” value in the experiment with Cqui\Or21 + Cqui\Orco is “could antagonize OLC12”.
